The text below walks through data of patent publication US10220069B2, “Compositions and methods for treating diabetes” (THE JOHNS HOPKINS UNIVERSITY, priority 2014, dated 2019).

Assay [1] has as its system islets. In words: Islets incubated 48 hours with K54: cAMP dependent, ER stress, oxidative stress and NLRP3 inflammasome markers (Table 5). It counts as cell-based, mouse. To be noted: K54 10 nM. The procedure: Kisspeptin1 Causes ERS and UPR in Islets Independently of Hyperglycemia. […] Because reduction in cAMP signaling in β-cells reduces IRS2 and PDX1 and provokes ERS/UPR and apoptosis 11,12, we examined whether kisspeptin action on β-cells may provoke ERS/UPR. Islets were incubated in 10 nM […]. To control for stimulus for increased insulin biosynthesis and potential UPR response, we incubated islets at 5 and 10 mM glucose. […] Incubation at 10 mM glucose stimulated oxidative stress ERS and NLRP-I markers, but less pronounced than […] at 5 mM glucose. Treatment with […] at high (10 mM) glucose further augmented ERS/UPR, oxidative stress and NLRP3-I markers. Thus, kisspeptin treatment even at normoglycemia stimulates in islets the ERS/UPR response more potently than hyperglycemia (glucose 10 mM) and […] aggravates ERS/UPR induced by hyperglycemia only (Table 5).

In assay [2] the target is T1, Kiss1R (Mus musculus, UniProt Q91V45).
T1 construct: Mouse brain, mouse islets, insulinoma cells, and human islets express Kiss1R; from tissue; host or cells: isolated mouse pancreatic islets (WT / Kiss1Rfl/fl, C57Bl/6 background)
In words: Glucose stimulated insulin secretion (GSIS) from cultured mouse islets, static incubation. It counts as cell-based. Details: GSIS at very high kisspeptin concentration: dose or concentration left out as unconfirmed. The procedure:
Isolated Islet Studies. Islet isolation was performed by collagenase digestion, gradient centrifugation, and three rounds of microscope-assisted manual picking of islets. Static incubation studies were conducted as previously described with 20 handpicked, equal-sized islets were studied in each group (Song et al., 2011). After overnight culture (37_C, 5% CO2, and 95% O2 in humid chamber) of isolated islets in RPMI 1640 (Mediatech) containing 5 mM glucose, 1% each Na-Pyruvate, HEPES, Penicillin/Streptomycin, and 0.2% BSA, islets were switched to either 10 or 20 mM glucose containing RPMI 1640. Where indicated, Kisspeptin-10 (0-100 nM, and […]), E4 (10 nM), or vehicle (PBS) was added. After 30 min incubation glucose concentrations, supernatant was taken for insulin measurements and pelleted islets were taken in acid ethanol (0.18M HCl in 70% ethanol) for insulin measurements in islets (ELISA, Alpco). Islet protein concentration was measured using the BCA method (Thermo Fisher).
Islet studies. Islet isolation was performed by collagenase digestion, gradient centrifugation and three rounds of microscope-assisted manual picking of islets (Song et al., 2011). Static incubation studies were conducted as previously described with 20 hand-picked equalized islets were studied in each group. Islets were cultured in RPMI 1640 medium (Invitrogen) containing 10 or 20 mM D-glucose (as indicated) and supplemented with 0.2% bovine serum albumin, 1% each Na-Pyruvate, HEPES, Penicillin/Streptomycin. After 30 min incubation glucose concentrations, supernatant was taken for insulin measurements and pelleted islets were taken in acid ethanol (0.18M HCl in 70% ethanol) for insulin measurements in islets (Alpco). Islet protein concentration was measured using the BCA method (Thermo Fisher).
Insulin secretion during static incubation. After overnight culture (37 C, 5% CO2, 95% O2 in humid chamber) of isolated islets in RPMI 1640 (Mediatech) containing 5 mM glucose, 1% each Na-Pyruvate, HEPES, Penicillin/Streptomycin and 0.2% bovine serum albumin (BSA), islets were switched to either 10 or 20 mM glucose containing RPMI 1640. […] After 30 min incubation glucose concentrations, supernatant was taken for insulin measurements and pelleted islets were taken in acid ethanol (0.18M HCl in 70% ethanol) for insulin measurements in islets (ELISA, Alpco). Islet protein concentration was measured using the BCA method (Thermo Fisher).

For assay [3], the target named is T1, Kiss1R. In words: Islet cAMP concentrations (ELISA) in response to kisspeptin. It counts as cell-based. The procedure:
(§1) For studies with plasma incubation, a final concentration of plasma was 1% or 10% (vol/vol). […] Islets were taken in 0.18M HCL/70% ethanol to extract and measure total islet insulin content. cAMP concentrations were measured in islet extracts using ELISA (Enzo Life Sciences).

For assay [4], the target named is T1, Kiss1R. The assay can be described thus: Islet perifusion assay, first and second phase GSIS. Type of assay: cell-based. The conditions noted are these: isolated mouse islets. The procedure: Perifusion studies were performed as previously published (Song et al., 2013; Song et al., 2011) with slight modifications. The perifusate was Krebs ringer buffer (KRB) (37 C, pH 7.4) containing 0.2% BSA fraction V, 24 mM sodium bicarbonate and was gassed with 95% air and 5% CO2. Perifusion (1 ml/min) occurred for the first 30 minutes with a KRB containing 3 mM glucose for equilibration, after which time the perifusate was collected in 1 ml fractions. After additional 10 minutes, glucose in the perifusate was increased to 10 mM. […] Insulin was measured in selected individual eluent fractions at 30, 35, 40, 42, 45, 50, 55, 60 min (Alpco ELISA). The first 10 minutes after increasing glucose was defined as first phase, the period thereafter was defined as second phase of insulin secretion. At the end of the perifusion protocol, 30 mM KCL was administered into the perifusate to depolarize β-cells. Insulin levels were normalized to total islet protein, which was spectrophotometrically determined (Eppendorf) after completion of the perifusion protocol.

Assay [5] has as its target T1, Kiss1R. In words: ipGTT with ip coinjection of kisspeptin and glucose. It counts as in vivo. The procedure: Intraperitoneal glucose tolerance (ipGTT) and insulin tolerance (ipITT) tests were performed according to standard protocols (Song et al., 2013; Song et al., 2011). After 9 am-3 pm fasting, animals were administered 20% D-glucose (via ip injection), insulin 0.5 U/kg i.p. (Novolin), glucagon (100 μg/kg i.p. (Sigma)). […] Plasma for glucagon measurements was drawn from mice in the fed state at 9 am, unless otherwise noted for fasting studies. Plasma glucagon (Alpco) and kisspeptin1 (USCN Life Sciences Inc. E92559Ra) were measured by ELISA according to manufacturer's instructions including dilution of samples.

The target of assay [6] is T2, receptor for the incretin hormone glucagon-like peptide-1 (GLP-1) (Mus musculus, UniProt O35659).
T2 construct: from tissue; host or cells: isolated mouse pancreatic islets (Kiss1Rfl/fl and Panc-ΔKiss1R)
T2 sequence (O35659 22-463): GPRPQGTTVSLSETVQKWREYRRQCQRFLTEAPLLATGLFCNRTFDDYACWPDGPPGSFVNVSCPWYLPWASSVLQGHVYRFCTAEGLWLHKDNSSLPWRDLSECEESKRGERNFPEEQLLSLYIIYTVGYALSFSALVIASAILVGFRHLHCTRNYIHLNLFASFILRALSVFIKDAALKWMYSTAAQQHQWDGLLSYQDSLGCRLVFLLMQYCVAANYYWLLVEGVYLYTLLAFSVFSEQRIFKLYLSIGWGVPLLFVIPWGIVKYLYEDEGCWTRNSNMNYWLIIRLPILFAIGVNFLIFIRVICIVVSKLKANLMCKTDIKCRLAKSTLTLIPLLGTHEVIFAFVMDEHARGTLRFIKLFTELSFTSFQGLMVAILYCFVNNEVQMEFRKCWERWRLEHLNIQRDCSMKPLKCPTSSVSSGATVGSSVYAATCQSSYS
In words: Islet cAMP synthesis in response to exendin-4. Type of assay: cell-based. The procedure:
as §1

The mark [7] stands for this setting: Kiss1Rfl/fl and Panc-DKiss1R islets.

T1 sequence (Q91V45 whole entry): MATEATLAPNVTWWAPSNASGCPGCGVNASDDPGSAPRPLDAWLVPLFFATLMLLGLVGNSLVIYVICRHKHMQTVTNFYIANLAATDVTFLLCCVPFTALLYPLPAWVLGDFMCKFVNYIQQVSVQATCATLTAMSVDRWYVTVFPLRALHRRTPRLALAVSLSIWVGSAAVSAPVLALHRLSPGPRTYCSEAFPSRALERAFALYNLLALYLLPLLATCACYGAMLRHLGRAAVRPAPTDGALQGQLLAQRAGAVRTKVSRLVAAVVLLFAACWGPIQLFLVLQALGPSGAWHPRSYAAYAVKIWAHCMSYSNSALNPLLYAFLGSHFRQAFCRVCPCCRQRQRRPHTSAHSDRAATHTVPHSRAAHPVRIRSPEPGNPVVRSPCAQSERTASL

As for “Gly-Thr-Ser-Leu-Ser-Pro-Pro-Pro-Glu-Ser-Ser-Gly-Ser-Arg-Gln-Gln-Pro-Gly-Leu-Ser-Ala-Pro-His-Ser-Arg-Gln-Ile-Pro-Ala-Pro-Gln- Gly-Ala-Val-Leu-Val-Gln-Arg-Glu- Lys-Asp-Leu-Pro-Asn-Tyr-Asn-Trp-Asn-Ser-Phe-Gly-Leu-Arg-Phe-NH2 [K54]”, in assay [1] (Hyperglycemia Glucose 10 mM), the “ATF5 (NLRP3 Inflammasome)” value turned out to be 1.9 ± 0.4, the “CHOP (ER stress)” value was 2.2 ± 0.5, the “Catalase (Oxidative stress)” value was found to be 8.8 ± 0.5 and the “IL-1β (NLRP3 Inflammasome)” value is reported as 1.9 ± 0.2. Further, in assay [1] (Hyperglycemia Glucose 10 mM), the “IRS2 (cAMP dependent)” value is given as 0.6 ± 0.2, the “PDI (ER stress)” value was 1.8 ± 0.3, the “PDX1 (cAMP dependent)” value is 0.5 ± 0.3 and the “SOD1 (Oxidative stress)” value is 3.2 ± 0.3. In addition, in assay [1] (Hyperglycemia Glucose 10 mM), the “SOD2 (Oxidative stress)” value worked out at 2.4 ± 0.4, the “Spliced XBP-1 (ER stress)” value was 2.1 ± 0.4, the “TXNIP (NLRP3 Inflammasome)” value was found to be 5.5 ± 0.3 and the “Total XBP-1 (ER stress)” value turned out to be 1.5 ± 0.3. Besides, in assay [1] (Normoglycemia Glucose 5 mM), the “ATF5 (NLRP3 Inflammasome)” value is reported as 1.4 ± 0.4, the “CHOP (ER stress)” value is 1.9 ± 0.4, the “Catalase (Oxidative stress)” value was 6.2 ± 0.6 and the “IL-1β (NLRP3 Inflammasome)” value was 1.7 ± 0.3. Besides, in assay [1] (Normoglycemia Glucose 5 mM), the “IRS2 (cAMP dependent)” value stood at 0.5 ± 0.3, the “PDI (ER stress)” value was 1.4 ± 0.4, the “PDX1 (cAMP dependent)” value is given as 0.6 ± 0.2 and the “SOD1 (Oxidative stress)” value worked out at 2.1 ± 0.4. Also, in assay [1] (Normoglycemia Glucose 5 mM), the “SOD2 (Oxidative stress)” value is listed as 1.9 ± 0.3, the “Spliced XBP-1 (ER stress)” value is reported as 1.8 ± 0.5, the “TXNIP (NLRP3 Inflammasome)” value is 4.8 ± 1.1 and the “Total XBP-1 (ER stress)” value was determined as 1.4 ± 0.3. Further, the “GSIS at very high kisspeptin concentration” value in assay [2] (setting [7]) was “GSIS stimulation from both Kiss1Rfl/fl and Panc-DKiss1R islets”. The “lowest concentration suppressing GSIS” value in assay [2] (Kiss1Rfl/fl mouse islets, serum-free media, 10 or 20 mM glucose) was 0.1 nM. Also, in assay [2] (islets lacking Kiss1R, nanomolar concentrations), the “GSIS from Panc-DKiss1R islets” value is on record as “impervious to K54-mediated GSIS suppression”. The “E4-potentiated GSIS” value in assay [2] (mouse islets cultured at 10 mM glucose, static incubation) is reported as “dose-dependently suppressed”. Further, the “GSIS from Kiss1Rfl/fl (WT) mouse islets” value in assay [2] (static incubation, nanomolar concentrations (0-100 nM), 10 or 20 mM glucose) was “suppressed GSIS in a dose-dependent manner”. Besides, in assay [3] (Kiss1Rfl/fl (WT) islets), the “islet cAMP production in response to exendin-4 (E4)” value is “impaired islet cAMP production”. In addition, the “islet cAMP concentrations” value in assay [3] (WT mouse islets, 10 mM glucose, 10 nM) was “lower cAMP concentrations”. In assay [3] (islets lacking Kiss1R), the “baseline and E4-induced cAMP concentrations in Panc-DKiss1R islets” value is “not affected”. The “E4-potentiated GSIS, first and second phase” value in assay [4] is “suppressed”. Moreover, the “first (0-10 min after glucose stimulation) and second phases of GSIS” value in assay [4] (10 mM glucose) is reported as “suppressed”. In addition, the “in vivo GSIS in control (Kiss1rfl/fl, WT) mice” value in assay [5] (10 nmol ip with glucose during ipGTT) was “suppressed GSIS”. Moreover, the “in vivo GSIS in Panc-DKiss1R mice” value in assay [5] (10 nmol ip, mice lacking pancreas Kiss1R) is on record as “did not affect GSIS”. The “glucose tolerance in WT mice” value in assay [5] (acute administration, 10 nmol ip) is on record as “impaired glucose tolerance”.
exendin-4 [E4]: the “islet cAMP synthesis” value in assay [6] (setting [7]) is “stimulates cAMP synthesis”. Also, in assay [6] (isolated WT mouse islets treated with K10), the “reversal of K10-reduced cAMP production” value is “partially reversed”.
